Results on 4 molecules are retold here after US9732311B2, “Alcoholic compositions having a lowered risk of acetaldehydemia” (Deuteria Beverages, LLC, priority 2009, dated 2017).

The structures appear in SMILES notation. Like-named read-outs stand apart in the source and are kept apart here.

For one data set, the system named is sheep liver ALDH. As to conditions: literature (Hart and Dickinson 1978); cited from earlier work.
For data set [1] the following is noted: oral. As to the method: The subject was a person, 154 kg, with no known abnormalities of ethanol metabolism. Experiments were conducted after an overnight fast. 1,1-Dideuterioethanol, 99 atom % D (CDN Isotopes; Quebec, Canada) (70 mL) was diluted to 500 mL with orange juice, and the resulting beverage was consumed by the subject over the course of five minutes. The mouth and palate were rinsed with orange juice, and data points were then obtained, in triplicate, every 10 minutes with a commercial breath analyzer (AlcoHAWK™ Pro, Q3 Innovations Inc., Independence, Iowa, U.S.A.) The control experiment employed 175 mL of commercial vodka (80 proof; 40% ethanol) but was otherwise identical.
Each data point in the FIGURE is the average of the three measurements taken at each time point.

The test system of a further data set is horse liver ALDH. As to conditions: literature (Feldman and Weiner 1972); cited from earlier work.

`[2H]C(C)=O` [acetaldehyde-1-d]: in the data set on sheep liver ALDH, the deuterium isotope effect result was “no isotope effect”.
`[2H]C([2H])(C)O` [deuterated ethanol, 1,1-Dideuterioethanol]: in data set [1] (human subject, FIG. 1), the “absorption relative to ethanol having a natural isotopic abundance” value is recorded as “substantially retarded”; the “areas under the curves of blood level vs time, deuterated vs ordinary ethanol” value is given as “substantially equivalent”; the “rate of clearance relative to ethanol having a natural isotopic abundance” value is listed as “reduced”. The “time after ingestion at which peak blood concentrations of ethanol are reached” value in data set [1] (human subject, after overnight fast, 70 mL diluted to 500 mL with orange juice) was 1 to 2 h. Also, in data set [1] (human subject, relative to non-deuterated ethanol), the “reduction of peak blood concentration” value is recorded as 15-20%.
As for `CCO` [ethanol, reference compound], in data set [1] (human, ordinary ethanol (normally)), the “time after ingestion at which peak blood concentrations of ethanol are reached” value was in the range of 0.333 to 0.5 h.
Turning to `[2H]C(=O)CC` [propionaldehyde-1-d], in the data set on horse liver ALDH, the deuterium isotope effect result is recorded as “no isotope effect”.
